Measured values: ChEMBL document CHEMBL1201862, “PubChem BioAssay data set” (2004)
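48-hour exposure; five concentrations; linearly interpolated endpoints. At the GI50, growth is halved.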 The source made the active and inactive calls. Rule as the data show it: active = GI50 up to about 1.1 µM and inactive = higher.

Experiments:
Experiment in all cases: DTP human tumour cell line panel, 48 h
HOP-62 = tested on: HOP-62
KM12 = tested on: KM12
RXF 393 = tested on: RXF 393
IGROV-1 = tested on: IGROV-1
NCI-H522 = tested on: NCI-H522
MDA-MB-231 = tested on: MDA-MB-231
EKVX = tested on: EKVX
SNB-75 = tested on: SNB-75
OVCAR-3 = tested on: OVCAR-3
OVCAR-4 = tested on: OVCAR-4
Malme-3M = tested on: Malme-3M
T47D = tested on: T47D
MDA-MB-435 = tested on: MDA-MB-435
786-0 = tested on: 786-0
NCI-H23 = tested on: NCI-H23
MCF7 = tested on: MCF7
SK-MEL-2 = tested on: SK-MEL-2
SNB-19 = tested on: SNB-19
HCT-15 = tested on: HCT-15
MOLT-4 = tested on: MOLT-4
NCI/ADR-RES = tested on: NCI/ADR-RES
SK-MEL-28 = tested on: SK-MEL-28
OVCAR-8 = tested on: OVCAR-8
DU-145 = tested on: DU-145
U-251 = tested on: U-251
SW-620 = tested on: SW-620
A549 = tested on: A549
A498 = tested on: A498
CCRF-CEM = tested on: CCRF-CEM
NCI-H460 = tested on: NCI-H460
ACHN = tested on: ACHN
UACC-62 = tested on: UACC-62
SK-OV-3 = tested on: SK-OV-3
TK-10 = tested on: TK-10
PC-3 = tested on: PC-3
SF-295 = tested on: SF-295
HT-29 = tested on: HT-29
HCT-116 = tested on: HCT-116
SF-268 = tested on: SF-268
HCC 2998 = tested on: HCC 2998
UACC-257 = tested on: UACC-257
LOX IMVI = tested on: LOX IMVI
HOP-92 = tested on: HOP-92
MDA-N = tested on: MDA-N
M14 = tested on: M14
K562 = tested on: K562
UO-31 = tested on: UO-31
NCI-H226 = tested on: NCI-H226
COLO 205 = tested on: COLO 205
HL-60 = tested on: HL-60
SN12C = tested on: SN12C
CAKI-1 = tested on: CAKI-1
OVCAR-5 = tested on: OVCAR-5
RPMI-8226 = tested on: RPMI-8226
SR = tested on: SR
SK-MEL-5 = tested on: SK-MEL-5

**Q.** For `O=C(O)CSc1nnc(COc2ccc(Cl)cc2)n1-c1ccccc1`, which GI50 (HOP-62) is on record?
**A.** > 100 µM (inactive)

**Q.** What about the GI50 (KM12) of the same compound?
**A.** > 100 µM (inactive)

**Q.** What about the GI50 (RXF 393) of the same compound?
**A.** > 100 µM (inactive)

**Q.** And the GI50 (IGROV-1)?
**A.** > 100 µM (inactive)

**Q.** What about the GI50 (NCI-H522) of the same compound?
**A.** > 100 µM (inactive)

**Q.** And the GI50 (MDA-MB-231)?
**A.** > 100 µM (inactive)

**Q.** And the GI50 (EKVX)?
**A.** > 100 µM (inactive)

**Q.** And the GI50 (SNB-75)?
**A.** > 100 µM (inactive)

**Q.** What about the GI50 (OVCAR-3) of the same compound?
**A.** > 100 µM (inactive)

**Q.** And the GI50 (OVCAR-4)?
**A.** > 100 µM (inactive)

**Q.** And the GI50 (Malme-3M)?
**A.** > 100 µM (inactive)

**Q.** What about the GI50 (T47D) of the same compound?
**A.** > 100 µM (inactive)

**Q.** What about the GI50 (MDA-MB-435) of the same compound?
**A.** > 100 µM (inactive)

**Q.** What about the GI50 (786-0) of the same compound?
**A.** > 100 µM (inactive)

**Q.** What about the GI50 (NCI-H23) of the same compound?
**A.** > 100 µM (inactive)

**Q.** And the GI50 (MCF7)?
**A.** > 100 µM (inactive)

**Q.** And the GI50 (SK-MEL-2)?
**A.** > 100 µM (inactive)

**Q.** What about the GI50 (SNB-19) of the same compound?
**A.** > 100 µM (inactive)

**Q.** And the GI50 (HCT-15)?
**A.** > 100 µM

**Q.** What about the GI50 (MOLT-4) of the same compound?
**A.** > 100 µM (inactive)

**Q.** And the GI50 (NCI/ADR-RES)?
**A.** > 100 µM (inactive)

**Q.** And the GI50 (SK-MEL-28)?
**A.** > 100 µM (inactive)

**Q.** And the GI50 (OVCAR-8)?
**A.** > 100 µM (inactive)

**Q.** What about the GI50 (DU-145) of the same compound?
**A.** > 100 µM (inactive)

**Q.** What about the GI50 (U-251) of the same compound?
**A.** > 100 µM (inactive)

**Q.** What about the GI50 (SW-620) of the same compound?
**A.** > 100 µM (inactive)

**Q.** And the GI50 (A549)?
**A.** > 100 µM (inactive)

**Q.** And the GI50 (A498)?
**A.** > 100 µM (inactive)

**Q.** And the GI50 (CCRF-CEM)?
**A.** > 100 µM (inactive)

**Q.** What about the GI50 (NCI-H460) of the same compound?
**A.** > 100 µM (inactive)

**Q.** What about the GI50 (ACHN) of the same compound?
**A.** > 100 µM (inactive)

**Q.** And the GI50 (UACC-62)?
**A.** > 100 µM (inactive)

**Q.** What about the GI50 (SK-OV-3) of the same compound?
**A.** > 100 µM (inactive)

**Q.** And the GI50 (TK-10)?
**A.** > 100 µM (inactive)

**Q.** What about the GI50 (PC-3) of the same compound?
**A.** > 100 µM (inactive)

**Q.** What about the GI50 (SF-295) of the same compound?
**A.** > 100 µM (inactive)

**Q.** And the GI50 (HT-29)?
**A.** > 100 µM (inactive)

**Q.** And the GI50 (HCT-116)?
**A.** > 100 µM (inactive)

**Q.** And the GI50 (SF-268)?
**A.** > 100 µM (inactive)

**Q.** And the GI50 (HCC 2998)?
**A.** > 100 µM (inactive)

**Q.** What about the GI50 (UACC-257) of the same compound?
**A.** > 100 µM (inactive)

**Q.** What about the GI50 (LOX IMVI) of the same compound?
**A.** > 100 µM (inactive)

**Q.** What about the GI50 (HOP-92) of the same compound?
**A.** > 100 µM (inactive)

**Q.** What about the GI50 (MDA-N) of the same compound?
**A.** > 100 µM (inactive)

**Q.** And the GI50 (M14)?
**A.** > 100 µM (inactive)

**Q.** And the GI50 (K562)?
**A.** > 100 µM (inactive)

**Q.** And the GI50 (UO-31)?
**A.** > 100 µM (inactive)

**Q.** What about the GI50 (NCI-H226) of the same compound?
**A.** > 100 µM (inactive)

**Q.** And the GI50 (COLO 205)?
**A.** > 100 µM (inactive)

**Q.** What about the GI50 (HL-60) of the same compound?
**A.** > 100 µM (inactive)

**Q.** And the GI50 (SN12C)?
**A.** > 100 µM (inactive)

**Q.** And the GI50 (CAKI-1)?
**A.** > 100 µM (inactive)

**Q.** And the GI50 (OVCAR-5)?
**A.** > 100 µM (inactive)

**Q.** For `CC(C)CCNC(=O)c1ccc(CNC(=O)/C=C/c2ccc(OCc3ccccc3)cc2)cc1`, which GI50 (HOP-62) is on record?
**A.** > 100 µM (inactive)

**Q.** And the GI50 (KM12)?
**A.** > 100 µM (inactive)

**Q.** And the GI50 (RPMI-8226)?
**A.** > 100 µM (inactive)

**Q.** What about the GI50 (RXF 393) of the same compound?
**A.** > 100 µM (inactive)

**Q.** And the GI50 (SR)?
**A.** > 100 µM (inactive)

**Q.** And the GI50 (MDA-MB-231)?
**A.** > 100 µM (inactive)

**Q.** What about the GI50 (SNB-75) of the same compound?
**A.** > 100 µM (inactive)

**Q.** What about the GI50 (OVCAR-3) of the same compound?
**A.** > 100 µM (inactive)

**Q.** And the GI50 (OVCAR-4)?
**A.** > 100 µM (inactive)

**Q.** What about the GI50 (T47D) of the same compound?
**A.** > 100 µM (inactive)

**Q.** And the GI50 (MDA-MB-435)?
**A.** > 100 µM (inactive)

**Q.** And the GI50 (786-0)?
**A.** > 100 µM (inactive)

**Q.** And the GI50 (NCI-H23)?
**A.** > 100 µM (inactive)

**Q.** And the GI50 (MCF7)?
**A.** > 100 µM (inactive)

**Q.** What about the GI50 (SK-MEL-2) of the same compound?
**A.** > 100 µM (inactive)

**Q.** What about the GI50 (SNB-19) of the same compound?
**A.** > 100 µM (inactive)

**Q.** And the GI50 (HCT-15)?
**A.** > 100 µM

**Q.** What about the GI50 (MOLT-4) of the same compound?
**A.** > 100 µM (inactive)

**Q.** And the GI50 (NCI/ADR-RES)?
**A.** > 100 µM (inactive)

**Q.** What about the GI50 (SK-MEL-28) of the same compound?
**A.** > 100 µM (inactive)

**Q.** And the GI50 (OVCAR-8)?
**A.** > 100 µM (inactive)

**Q.** What about the GI50 (DU-145) of the same compound?
**A.** > 100 µM (inactive)

**Q.** What about the GI50 (U-251) of the same compound?
**A.** > 100 µM (inactive)

**Q.** And the GI50 (SW-620)?
**A.** > 100 µM (inactive)

**Q.** And the GI50 (A549)?
**A.** > 100 µM (inactive)

**Q.** And the GI50 (A498)?
**A.** > 100 µM (inactive)

**Q.** And the GI50 (CCRF-CEM)?
**A.** > 100 µM (inactive)

**Q.** What about the GI50 (NCI-H460) of the same compound?
**A.** > 100 µM (inactive)

**Q.** What about the GI50 (ACHN) of the same compound?
**A.** > 100 µM (inactive)

**Q.** And the GI50 (UACC-62)?
**A.** > 100 µM (inactive)

**Q.** What about the GI50 (SK-OV-3) of the same compound?
**A.** > 100 µM (inactive)

**Q.** What about the GI50 (PC-3) of the same compound?
**A.** > 100 µM (inactive)

**Q.** And the GI50 (SF-295)?
**A.** > 100 µM (inactive)

**Q.** And the GI50 (HT-29)?
**A.** > 100 µM (inactive)

**Q.** And the GI50 (HCT-116)?
**A.** > 100 µM (inactive)

**Q.** And the GI50 (SF-268)?
**A.** > 100 µM (inactive)

**Q.** And the GI50 (HCC 2998)?
**A.** > 100 µM (inactive)

**Q.** And the GI50 (UACC-257)?
**A.** > 100 µM (inactive)

**Q.** What about the GI50 (SK-MEL-5) of the same compound?
**A.** > 100 µM (inactive)

**Q.** What about the GI50 (LOX IMVI) of the same compound?
**A.** > 100 µM (inactive)

**Q.** And the GI50 (HOP-92)?
**A.** > 100 µM (inactive)

**Q.** What about the GI50 (MDA-N) of the same compound?
**A.** > 100 µM (inactive)

**Q.** What about the GI50 (M14) of the same compound?
**A.** > 100 µM (inactive)

**Q.** And the GI50 (K562)?
**A.** > 100 µM (inactive)

**Q.** And the GI50 (UO-31)?
**A.** > 100 µM (inactive)

**Q.** And the GI50 (NCI-H226)?
**A.** 39.9 µM (inactive)

**Q.** What about the GI50 (COLO 205) of the same compound?
**A.** > 100 µM (inactive)

**Q.** And the GI50 (SN12C)?
**A.** > 100 µM (inactive)

**Q.** And the GI50 (CAKI-1)?
**A.** > 100 µM (inactive)

**Q.** What about the GI50 (OVCAR-5) of the same compound?
**A.** > 100 µM (inactive)
